Assay: xn = mol fraction of the nth substance listed
Conditions: Liquid, Vibrating tube method

CCCCCCCC [octane] + c1ccccc1
mass density [kg/m3]
Conditions | x1 = 0.1097 | x1 = 0.2036 | x1 = 0.2984 | x1 = 0.4069 | x1 = 0.5027 | x1 = 0.5904 | x1 = 0.6989 | x1 = 0.7964 | x1 = 0.904 | x1 = 1
298.15 K, 100 kPa | 838.3 | 813.5 | 792.3 | 771.6 | 755.7 | 743 | 729.1 | 718.2 | 707.3 | 698.7
298.15 K, 2130 kPa | 839.9 | 815.2 | 794 | 773.3 | 757.4 | 744.8 | 730.9 | 719.9 | 709.1 | 700.4
298.15 K, 4150 kPa | 841.6 | 816.9 | 795.7 | 775.1 | 759.2 | 746.5 | 732.6 | 721.7 | 710.8 | 702.2
298.15 K, 6180 kPa | 843.3 | 818.6 | 797.4 | 776.8 | 760.9 | 748.2 | 734.3 | 723.4 | 712.4 | 703.8
298.15 K, 8210 kPa | 844.9 | 820.2 | 799.1 | 778.5 | 762.5 | 749.9 | 735.9 | 725 | 714.1 | 705.4
298.15 K, 10230 kPa | 846.5 | 821.8 | 800.7 | 780.1 | 764.2 | 751.5 | 737.6 | 726.7 | 715.7 | 707
298.15 K, 11250 kPa | 847.3 | 822.7 | 801.5 | 780.9 | 765 | 752.3 | 738.4 | 727.5 | 716.5 | 707.8
298.15 K, 12260 kPa | 848.1 | 823.5 | 802.4 | 781.7 | 765.8 | 753.2 | 739.2 | 728.3 | 717.3 | 708.6
298.15 K, 14290 kPa | 849.7 | 825.1 | 803.9 | 783.4 | 767.4 | 754.7 | 740.8 | 729.8 | 718.8 | 710.1
298.15 K, 16310 kPa | 851.2 | 826.6 | 805.5 | 784.9 | 769 | 756.3 | 742.4 | 731.4 | 720.4 | 711.7
298.15 K, 18340 kPa | 852.7 | 828.1 | 807 | 786.4 | 770.5 | 757.8 | 743.8 | 732.9 | 721.9 | 713.1
298.15 K, 20370 kPa | 854.2 | 829.6 | 808.5 | 788 | 772 | 759.3 | 745.3 | 734.4 | 723.3 | 714.6
298.15 K, 22390 kPa | 855.7 | 831.1 | 810 | 789.4 | 773.4 | 760.8 | 746.8 | 735.8 | 724.8 | 715.9
298.15 K, 24420 kPa | 857.1 | 832.6 | 811.5 | 790.8 | 774.9 | 762.2 | 748.2 | 737.2 | 726.2 | 717.4
298.15 K, 26450 kPa | 858.5 | 834 | 812.9 | 792.3 | 776.3 | 763.6 | 749.6 | 738.7 | 727.5 | 718.8
298.15 K, 28470 kPa | 859.9 | 835.4 | 814.3 | 793.7 | 777.7 | 765 | 751 | 740 | 728.9 | 720.1
298.15 K, 29490 kPa | 860.6 | 836.1 | 815 | 794.3 | 778.4 | 765.7 | 751.7 | 740.7 | 729.6 | 720.8
298.15 K, 30500 kPa | 861.3 | 836.8 | 815.7 | 795 | 779.1 | 766.4 | 752.4 | 741.4 | 730.2 | 721.4
298.15 K, 32530 kPa | 862.6 | 838.1 | 817 | 796.4 | 780.4 | 767.7 | 753.7 | 742.7 | 731.5 | 722.7
298.15 K, 34550 kPa | 864 | 839.5 | 818.4 | 797.8 | 781.8 | 769.1 | 755 | 744.1 | 732.9 | 724
298.15 K, 36580 kPa | 865.3 | 840.8 | 819.7 | 799.1 | 783.1 | 770.4 | 756.4 | 745.4 | 734.2 | 725.3
298.15 K, 38600 kPa | 866.6 | 842.1 | 821 | 800.4 | 784.4 | 771.7 | 757.6 | 746.5 | 735.4 | 726.5
298.15 K, 39620 kPa | 867.3 | 842.7 | 821.6 | 801 | 785 | 772.3 | 758.2 | 747.1 | 736 | 727.1
308.15 K, 100 kPa | 828.4 | 803.9 | 783 | 762.6 | 747 | 734.5 | 720.8 | 709.9 | 699.3 | 690.8
308.15 K, 2130 kPa | 830.2 | 805.7 | 784.9 | 764.5 | 748.8 | 736.4 | 722.7 | 711.8 | 701.1 | 692.6
308.15 K, 4150 kPa | 832 | 807.5 | 786.7 | 766.3 | 750.7 | 738.2 | 724.5 | 713.7 | 703 | 694.4
308.15 K, 6180 kPa | 833.7 | 809.3 | 788.5 | 768.2 | 752.5 | 740 | 726.3 | 715.5 | 704.8 | 696.2
308.15 K, 8210 kPa | 835.5 | 811.1 | 790.3 | 770 | 754.3 | 741.8 | 728.1 | 717.2 | 706.5 | 698
308.15 K, 10230 kPa | 837.2 | 812.8 | 792 | 771.7 | 756.1 | 743.6 | 729.9 | 719 | 708.3 | 699.7
308.15 K, 11250 kPa | 838 | 813.7 | 792.9 | 772.6 | 756.9 | 744.4 | 730.7 | 719.8 | 709.1 | 700.5
308.15 K, 12260 kPa | 838.8 | 814.5 | 793.7 | 773.4 | 757.8 | 745.3 | 731.6 | 720.7 | 709.9 | 701.3
308.15 K, 14290 kPa | 840.5 | 816.2 | 795.4 | 775.1 | 759.5 | 747 | 733.2 | 722.3 | 711.6 | 703
308.15 K, 16310 kPa | 842.1 | 817.8 | 797 | 776.7 | 761.1 | 748.6 | 734.8 | 723.9 | 713.1 | 704.5
308.15 K, 18340 kPa | 843.7 | 819.5 | 798.7 | 778.4 | 762.7 | 750.2 | 736.5 | 725.5 | 714.8 | 706.1
308.15 K, 20370 kPa | 845.3 | 821 | 800.3 | 780 | 764.3 | 751.8 | 738 | 727.1 | 716.3 | 707.6
308.15 K, 22390 kPa | 846.8 | 822.6 | 801.8 | 781.5 | 765.8 | 753.3 | 739.6 | 728.6 | 717.8 | 709.1
308.15 K, 24420 kPa | 848.3 | 824.1 | 803.4 | 783.1 | 767.4 | 754.8 | 741.1 | 730.1 | 719.3 | 710.6
308.15 K, 26450 kPa | 849.8 | 825.6 | 804.9 | 784.6 | 768.9 | 756.3 | 742.6 | 731.6 | 720.8 | 712
308.15 K, 28470 kPa | 851.3 | 827.1 | 806.4 | 786 | 770.4 | 757.8 | 744 | 733 | 722.2 | 713.4
308.15 K, 29490 kPa | 852 | 827.8 | 807.1 | 786.8 | 771.1 | 758.5 | 744.8 | 733.7 | 722.9 | 714.1
308.15 K, 30500 kPa | 852.7 | 828.6 | 807.8 | 787.5 | 771.8 | 759.2 | 745.5 | 734.4 | 723.6 | 714.8
308.15 K, 32530 kPa | 854.2 | 830 | 809.2 | 788.9 | 773.2 | 760.7 | 746.9 | 735.8 | 725 | 716.2
308.15 K, 34550 kPa | 855.5 | 831.4 | 810.6 | 790.3 | 774.6 | 762 | 748.3 | 737.2 | 726.3 | 717.5
308.15 K, 36580 kPa | 856.9 | 832.8 | 812 | 791.7 | 776 | 763.4 | 749.6 | 738.5 | 727.7 | 718.8
308.15 K, 38600 kPa | 858.3 | 834.2 | 813.4 | 793.1 | 777.3 | 764.7 | 750.9 | 739.9 | 729 | 720.2
308.15 K, 39620 kPa | 859 | 834.9 | 814.1 | 793.7 | 778 | 765.4 | 751.6 | 740.6 | 729.7 | 720.8

Source: the NIST ThermoML archive (doi:10.1016/j.jct.2007.11.009)
